Assay results from patent US10233186B2, “Inhibitors of activin receptor-like kinase” (BLUEPRINT MEDICINES CORPORATION, priority 2016, dated 2019).

Legend:
[1] = target: T1, ALK2 R206H (GST-tagged mutant ALK2) (Homo sapiens, UniProt Q04771, R206H); experiment: ALK binding assay (LANTHASCREEN TR-FRET competitive binding, displacement of Kinase Tracer 178); conditions: ALK2 R206H, LANTHASCREEN TR-FRET competitive binding; read-out: Binding Assay (IC50)
T1 construct: purchased Carna Bioscience or ThermoFisher 09-148 or PV6232
T1 sequence (Q04771 21-509 R206H): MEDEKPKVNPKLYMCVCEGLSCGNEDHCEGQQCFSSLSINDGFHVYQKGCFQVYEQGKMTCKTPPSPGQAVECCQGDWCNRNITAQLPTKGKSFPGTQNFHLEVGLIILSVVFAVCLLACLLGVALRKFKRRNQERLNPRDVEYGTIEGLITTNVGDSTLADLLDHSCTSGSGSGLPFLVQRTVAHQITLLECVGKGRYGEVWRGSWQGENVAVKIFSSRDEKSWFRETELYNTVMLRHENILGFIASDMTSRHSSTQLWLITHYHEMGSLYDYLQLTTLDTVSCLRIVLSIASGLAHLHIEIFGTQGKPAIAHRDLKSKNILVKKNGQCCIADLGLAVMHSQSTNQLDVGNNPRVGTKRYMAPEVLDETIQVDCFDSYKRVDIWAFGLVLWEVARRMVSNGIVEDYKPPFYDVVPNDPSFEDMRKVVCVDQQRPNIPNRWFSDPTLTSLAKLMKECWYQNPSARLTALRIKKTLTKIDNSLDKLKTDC

human ALK2 R206H = target: T2, human ALK2 R206H (Homo sapiens, UniProt Q04771, R206H); experiment: Cell-based ALK2-R206H cell activity assay (Smad1-Ser463/Ser465 phosphorylation by AlphaLISA in HEK293-ALK2-R206H cells); conditions: read-out: Cell Line (Cell Assay IC50)
T2 construct: expressed in transfected cells; host or cells: HEK293 (ATCC CRL1573), lentivirus transduction, blasticidin selection
T2 sequence (Q04771 21-509 R206H): T1 sequence (Q04771 21-509 R206H)
Summary of the method: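 Stable HEK293 cells expressing C-terminally FLAG-tagged human ALK2 R206H (lentiviral, blasticidin-selected) were treated with compounds in 10-point, 3-fold dilutions from 10 μM or 1 μM top, in duplicate. Smad1 Ser463/Ser465 phosphorylation was read by AlphaLISA.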

| Compound | IC50 [1] | IC50 (human ALK2 R206H) |
| --- | --- | --- |
| CCNC(=O)N1CCN(c2ccnn3cc(-c4ccc(C5(OC)CCN(C(C)C)CC5)c(F)c4)cc23)CC1 [Compound 697] | < 10 nM | < 100 nM |
| CCNC(=O)N1CCN(c2ccnn3cc(-c4ccc([C@@]5(OC)CCCN(C(C)C)C5)c(F)c4)cc23)CC1 [Compound 698] | < 10 nM | < 100 nM |
| CCNC(=O)N1CCN(c2ccnn3cc(-c4ccc([C@]5(OC)CCCN(C(C)C)C5)c(F)c4)cc23)CC1 [Compound 699] | < 10 nM | < 100 nM |
| CCOC(=O)N1CCN(c2ccnn3cc(-c4ccc(C5(OC)CCN(C(C)C)CC5)cc4F)cc23)CC1 [Compound 701, ethyl 4-(6-(2-fluoro-4-(1-isopropyl-4-methoxypiperidin-4-yl)phenyl)pyrrolo[1,2-b]pyridazin-4-yl)piperazine-1-carboxylate] | < 10 nM | < 100 nM |
| CC(C)N1CC[C@@H](c2ccc(-c3cc4c(N5CCN(C(=O)[C@H]6CC[C@H](C#N)CC6)CC5)ccnn4c3)nc2)C1 [Compound 702] | < 10 nM | < 100 nM |
| CC(C)N1CC[C@H](c2ccc(-c3cc4c(N5CCN(C(=O)[C@H]6CC[C@H](C#N)CC6)CC5)ccnn4c3)nc2)C1 [Compound 703] | < 10 nM | < 100 nM |
| CC(C)N1CCC(c2ccc(-c3cc4c(N5CCN(C(=O)OC6CC(C#N)C6)CC5)ccnn4c3)cc2)CC1 (centres unmarked) [Compound 704] | < 10 nM | < 100 nM |
| COC1(c2ccc(-c3cc4c(N5CCN(C(=O)[C@H]6C[C@@H]6C#N)CC5)ccnn4c3)cc2)CCN(C(C)C)CC1 [Compound 705] | < 10 nM | < 100 nM |
| CC(C)N1CC(O)(c2ccc(-c3cc4c(N5CCN(C(=O)C6CCC(C#N)CC6)CC5)ccnn4c3)cc2)C1 (centres unmarked) [Compound 706] | < 10 nM | < 100 nM |
| CC(C)N1CCC(c2ccc(-c3cc4c(N5CCN(C(=O)NCC(F)(F)F)CC5)ccnn4c3)cc2)CC1 [Compound 708] | < 10 nM | < 100 nM |
| CC(C)N1CCC(c2ccc(-c3cc4c(N5CCN(C(=O)OC6CCOCC6)CC5)ccnn4c3)cc2)CC1 [Compound 709] | < 10 nM | 100 to 500 nM |
| COCC(C)N1CCC(OC)(c2ccc(-c3cc4c(N5CCN(C(=O)C6CC6)CC5)ccnn4c3)nc2)CC1 (centres unmarked) [Compound 710] | < 10 nM | < 100 nM |
| COC[C@H](C)N1CCC(OC)(c2ccc(-c3cc4c(N5CCN(C(=O)C6CC6)CC5)ccnn4c3)nc2)CC1 [Compound 711] | < 10 nM | < 100 nM |
| CCOC1(c2ccc(-c3cc4c(N5CCN(C(=O)NC(C)C)CC5)ccnn4c3)cc2)CCN(C(C)C)CC1 [Compound 712] | < 10 nM | < 100 nM |
| COC1(c2ccc(-c3cc4c(N5CCN(C(=O)OC6COC6)CC5)ccnn4c3)cc2)CCN(C(C)C)CC1 [Compound 713] | < 10 nM | < 100 nM |
| COC1(c2ccc(-c3cc4c(N5CCN(C(=O)NC(C)C)CC5)ccnn4c3)nc2)CCN(C2COC2)CC1 [Compound 714] | < 10 nM | < 100 nM |
| CCOC1(c2ccc(-c3cc4c(N5CCN(C(=O)NC(C)C)CC5)ccnn4c3)nc2)CCN(C(C)C)CC1 [Compound 715] | < 10 nM | < 100 nM |
| CCO[C@@]1(c2ccc(-c3cc4c(N5CCN(C(=O)NC(C)C)CC5)ccnn4c3)nc2)CCCN(C(C)C)C1 [Compound 716] | < 10 nM | < 100 nM |
| CO[C@@]1(c2ccc(-c3cc4c(N5CCN(C(=O)OC6COC6)CC5)ccnn4c3)nc2)CCCN(C(C)C)C1 [Compound 718] | < 10 nM | < 100 nM |
| COC1(c2ccc(-c3cc4c(N5CCN(C(=O)NC(C)C)CC5)ccnn4c3)cc2F)CCN(C(C)C)CC1 [Compound 720] | < 10 nM | < 100 nM |

| Compound | IC50 [1] | IC50 (human ALK2 R206H) |
| --- | --- | --- |
| COC1(c2ccc(-c3cc4c(N5CCN(C(=O)NC(C)C)CC5)ccnn4c3)c(F)c2)CCN(C(C)C)CC1 [Compound 721] | < 10 nM | < 100 nM |
| COC1(c2ccc(-c3cc4c(N5CCN(C(=O)NC(C)C)CC5)ccnn4c3)cc2F)CCCN(C(C)C)C1 (centres unmarked) [Compound 722] | < 10 nM | < 100 nM |
| CO[C@]1(c2ccc(-c3cc4c(N5CCN(C(=O)NC(C)C)CC5)ccnn4c3)cc2F)CCCN(C(C)C)C1 [Compound 723] | < 10 nM | < 100 nM |
| CO[C@@]1(c2ccc(-c3cc4c(N5CCN(C(=O)NC(C)C)CC5)ccnn4c3)cc2F)CCCN(C(C)C)C1 [Compound 724] | < 10 nM | < 100 nM |
| COC1(c2cnc(-c3cc4c(N5CCN(C(=O)NC(C)C)CC5)ccnn4c3)c(F)c2)CCN(C(C)C)CC1 [Compound 725] | < 10 nM | < 100 nM |
| CC(C)N1CCC(c2ccc(-c3cc4c(N5CCN(C(=O)OC6COC6)CC5)ccnn4c3)c(Cl)c2)CC1 [Compound 726] | < 10 nM | 100 to 500 nM |
| CC(C)N1CCC(c2ccc(-c3cc4c(N5CCN(C(=O)C6CC6)CC5)ccnn4c3)cc2)(C(F)(F)F)CC1 [Compound 727] | < 10 nM | < 100 nM |
| COC1(c2ccc(-c3cc4c(N5CCN(C(=O)[C@H]6C[C@H](C#N)C6)CC5)ccnn4c3)cc2)CCN(C(C)C)CC1 [Compound 728] | < 10 nM | < 100 nM |
| COC1(c2ccc(-c3cc4c(N5CCN(C(=O)C6CCC(C#N)CC6)CC5)ccnn4c3)cc2)CN(C(C)C)C1 (centres unmarked) [Compound 729] | < 10 nM | < 100 nM |
| COC1(c2ccc(-c3cc4c(N5CCN(C(=O)[C@H]6C[C@H](C#N)C6)CC5)ccnn4c3)nc2)CCN(C(C)C)CC1 [Compound 731] | < 10 nM | < 100 nM |
| CC(C)(C)OC(=O)N1CCC(N)(c2ccc(-c3cc4c(N5CCN(C(=O)C6CC6)CC5)ccnn4c3)cc2)CC1 [Compound 732] | < 10 nM | 100 to 500 nM |
| COC1(c2ccc(-c3cc4c(N5CCN(C(=O)OC6COC6)CC5)ccnn4c3)nc2)CCN(C2COC2)CC1 [Compound 733] | < 10 nM | < 100 nM |
| CCOC1(c2ccc(-c3cc4c(N5CCN(C(=O)OC6COC6)CC5)ccnn4c3)nc2)CCN(C(C)C)CC1 [Compound 734] | < 10 nM | < 100 nM |
| COC[C@@H](C)N1CCC(OC)(c2ccc(-c3cc4c(N5CCN(C(=O)NC(C)C)CC5)ccnn4c3)nc2)CC1 [Compound 735] | < 10 nM | < 100 nM |
| COC[C@H](C)N1CCC(OC)(c2ccc(-c3cc4c(N5CCN(C(=O)NC(C)C)CC5)ccnn4c3)nc2)CC1 [Compound 736] | < 10 nM | < 100 nM |
| COC1(c2ccc(-c3cc4c(N5CCN(C(=O)OC6COC6)CC5)ccnn4c3)c(F)c2)CCN(C(C)C)CC1 [Compound 737] | < 10 nM | < 100 nM |
| CC(C)NC(=O)N1CCN(c2ccnn3cc(-c4ccc(C5(C(F)(F)F)CCN(C(C)C)CC5)cc4)cc23)CC1 [Compound 738] | < 10 nM | < 100 nM |
| COC1(c2ccc(-c3cc4c(N5CCN(C(=O)[C@H]6C[C@H](C#N)C6)CC5)ccnn4c3)cc2)CCN([C@H](C)CO)CC1 [Compound 739] | < 10 nM | < 100 nM |
| COC1(c2ccc(-c3cc4c(N5CCN(C(=O)[C@H]6C[C@H](C#N)C6)CC5)ccnn4c3)cc2)CCN([C@@H](C)CO)CC1 [Compound 740] | < 10 nM | < 100 nM |
| COC1(c2ccc(-c3cc4c(N5CCN(C(=O)[C@H]6C[C@H](C#N)C6)CC5)ccnn4c3)nc2)CCN([C@@H](C)CO)CC1 [Compound 741] | < 10 nM | < 100 nM |
